PubChem BioAssay AID256 (DTP/NCI, 2004)
Toxic doses and inconclusive results are not listed. How the source made its calls: active means survival T/C of 150% or more; inactive means T/C below 125% in these data.

Test system: CD2F1 mice, L1210 leukemia ip, survival T/C
Experiment: NCI In Vivo Anticancer Drug Screen. Data for tumor model L1210 Leukemia (intraperitoneal) in CD2F1 (CDF1) mice
Details: endpoint: mean survival time, higher = longer survival
How it was run: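 Each value reflects a quotient of treated over vehicle control outcomes in mice with a transplanted tumor.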

[1] = dose: 100.0 mg/kg/injection, schedule: Q04DX003 (ip), vehicle: saline with Tween-80
[2] = dose: 200.0 mg/kg/injection, schedule: Q04DX003 (ip), vehicle: saline with Tween-80
[3] = dose: 400.0 mg/kg/injection, schedule: Q04DX003 (ip), vehicle: saline with Tween-80
[4] = dose: 100.0 mg/kg/injection, schedule: Q01DX001 (ip), vehicle: saline with Tween-80
[5] = dose: 200.0 mg/kg/injection, schedule: Q01DX001 (ip), vehicle: saline with Tween-80
[6] = dose: 400.0 mg/kg/injection, schedule: Q01DX001 (ip), vehicle: saline with Tween-80
[7] = dose: 100.0 mg/kg/injection, schedule: Q01DX009 (ip), vehicle: saline with Tween-80
[8] = dose: 200.0 mg/kg/injection, schedule: Q01DX009 (ip), vehicle: saline with Tween-80
[9] = dose: 400.0 mg/kg/injection, schedule: Q01DX009 (ip), vehicle: saline with Tween-80

Measured: T/C

CCOC(=O)CNCC(O)C(Cl)(Cl)Cl (stereo not given)
inactive: [1] 102 % of control | [2] 98 % of control | [3] 96 % of control

CN(C)N=Nc1ccccc1-c1nc(N)c2ccccc2n1
inactive: dose: 6.25 mg/kg/injection, schedule: Q01DX005 (ip), vehicle: water 103 % of control | dose: 12.5 mg/kg/injection, schedule: Q01DX005 (ip), vehicle: water 88 % of control | dose: 25.0 mg/kg/injection, schedule: Q01DX005 (ip), vehicle: water 109 % of control | dose: 50.0 mg/kg/injection, schedule: Q01DX005 (ip), vehicle: water 117 % of control | dose: 100.0 mg/kg/injection, schedule: Q01DX005 (ip), vehicle: water 98 % of control

CCN(CC)C(=O)[S-].CCN(CC)C(=O)[S-].[Ni+2]
inactive: [4] 94 % of control | [5] 98 % of control | [6] 102 % of control

ICC1COC(CI)CO1 (stereo not given)
inactive: [7] 102 % of control | [1] 105 % of control | [8] 96 % of control | [2] 110 % of control | [9] 100 % of control | [3] 100 % of control

Brc1cccc(-n2ccnc2)c1
inactive: [1] 102 % of control | [2] 112 % of control

O=C(CBr)c1cc2ncccc2c2ccccc12
inactive: dose: 100.0 mg/kg/injection, schedule: Q01DX009 (ip), vehicle: other 101 % of control

COC1OC2COC(c3ccccc3)OC2C2NC(N)(N[N+](=O)[O-])C12O (stereo not given)
inactive: [4] 91 % of control | [5] 88 % of control | [6] 94 % of control

COC(=O)CCC(=O)N(C)CCc1c[nH]c2ccccc12
inactive: [7] 100 % of control | [1] 93 % of control | [8] 94 % of control | [2] 93 % of control | [9] 100 % of control | [3] 98 % of control

CC1(C)OC2C(CN=[N+]=[N-])OC(n3cnc4c(=O)[nH]c(N)nc43)C2O1 (stereo not given)
inactive: dose: 100.0 mg/kg/injection, schedule: Q01DX001 (ip), vehicle: Klucel (hydroxypropylcellulose) (HPC) 109 % of control | dose: 200.0 mg/kg/injection, schedule: Q01DX001 (ip), vehicle: Klucel (hydroxypropylcellulose) (HPC) 97 % of control | dose: 400.0 mg/kg/injection, schedule: Q01DX001 (ip), vehicle: Klucel (hydroxypropylcellulose) (HPC) 97 % of control

C=C1C(=C)C2C=CC1C1C3C(c4ccccn4)=NN=C(c4ccccn4)C3C21 (stereo not given)
inactive: dose: 25.0 mg/kg/injection, schedule: Q04DX002 (ip), vehicle: saline with Tween-80 95 % of control | dose: 50.0 mg/kg/injection, schedule: Q04DX002 (ip), vehicle: saline with Tween-80 98 % of control | dose: 100.0 mg/kg/injection, schedule: Q04DX002 (ip), vehicle: saline with Tween-80 98 % of control | dose: 200.0 mg/kg/injection, schedule: Q04DX002 (ip), vehicle: saline with Tween-80 88 % of control | dose: 400.0 mg/kg/injection, schedule: Q04DX002 (ip), vehicle: saline with Tween-80 103 % of control

CN(C)c1ccc(N=Cc2cc[n+](C)cc2)cc1
inactive: dose: 25.0 mg/kg/injection, schedule: Q04DX003 (ip), vehicle: saline 98 % of control | dose: 50.0 mg/kg/injection, schedule: Q04DX003 (ip), vehicle: saline 102 % of control | dose: 100.0 mg/kg/injection, schedule: Q04DX003 (ip), vehicle: saline 102 % of control
